Test: Study HDP-CDV-201: safety and tolerability (adverse events, laboratory abnormalities, discontinuations)
Assay type: in vivo, human (adult allogeneic HSCT recipients)
Method: Clinical Studies of HDP-CDV were performed and described in detail in the following Examples. For example, HDP-CDV-201 is a placebo-controlled, dose-escalating trial in HSCT CMV (R+) recipients, evaluating the ability of HDP-CDV to prevent or control CMV infection was carried out. Five cohorts were established in which participants or subjects received either placebo or the HDP-CDV orally, in doses ranging from 40 mg weekly (QW) to 200 mg twice weekly (BIW). Subjects who were post-HSCT were enrolled at the time of engraftment and randomized to HDP-CDV or placebo (3 to 1 ratio) and received blinded therapy until approximately 100 day post-transplantation. HDP-CDV doses were 40 mg QW, 100 mg QW, 200 mg QW, 200 mg BIW and 100 mg BIW. Escalation to the next dose was decided by the data monitoring committee after review of the safety data from the previous Cohort. Subjects who developed CMV disease or CMV infection requiring pre-emptive therapy with local standard of care were discontinued from blinded therapy and followed for 4 weeks. Subjects who completed treatment with blinded therapy were followed for 8 weeks post-therapy.
Data from Study HDP-CDV-201 also provided characterization of the safety and tolerability profile of HDP-CDV when administered for the prevention or control of CMV infection in high risk (R^+) post-HSCT adult subjects.
The Safety population (SAFETY) included all randomized subjects who took at least one dose of study treatment. This population was used to summarize safety outcomes based on the treatment actually received, in cases where a subject was treated contrary to the randomization schedule.
The safety and tolerability profile of HDP-CDV, including subject demographics and Baseline characteristics; the AE profile; and laboratory abnormalities of interest were analyzed in the cohorts followed in this investigation.
Subjects completing the treatment period received a full course of study medication; those completing the entire study attended visits through 8 weeks of follow up. Subjects who discontinued treatment may have done so for protocol specified reasons (e.g. development of clinically significant CMV infection requiring preemptive treatment with excluded anti-CMV medications) or for other reasons (e.g., withdrawal, adverse events, loss to follow-up). The disposition of subjects in Study HDP-CDV-201 during the double-blind, placebo-controlled treatment period (through Week 11) is listed by dosing Cohort in TABLE 23.
Adverse events were examined by severity to ensure that all safety signals were identified in this study population. Because of the frequency of events in HSCT recipients, particular attention was given to evaluation of Grade 3 […], 4 (severe), and 5 (fatal) adverse events.
Only those preferred terms for which at least one Grade 3 or higher event was experienced in any treatment group are listed. Cytomegalovirus-related AEs are excluded from this analysis.
HDP-CDV is a lipid conjugate of CDV. Because CDV is known to have adverse effects on renal function and bone marrow, decreased GFR and persistent neutropenia were identified as AEs of special interest. Key renal and hematological (TABLE 30) laboratory parameters were measured and listed below by Study HDP-CDV-201 treatment groups. TABLE 30 includes abnormal levels of serum creatinine, neutrophils, platelets, WBCs, and hemoglobin and includes data at Screening and during the treatment period.
A common metric for unit based dosing of medications is by weight (mg/kg). When the distribution of weights was examined for all subjects participating in the study, the median was 78 kg and the lower 25th percentile weight was approximately 65 kg, which translates to a cut-off of ˜3 mg/kg for a 200 mg total weekly dose. Based upon this approach, a cut-off of 3 mg/kg was used to assess the frequency of diarrhea and associated GI AEs reported for the subjects in Cohorts 3 or 4a (TABLE 40).

[1] = Cohort 1, 40 mg QW, through Week 11

CCCCCCCCCCCCCCCCOCCCOP(=O)(O)COC(CO)Cn1ccc(N)nc1=O (stereo not drawn) [HDP-CDV]
Gastrointestinal AE Abdominal discomfort, subjects (Cohort 1, 40 mg QW): 0 | Gastrointestinal AE Abdominal distention, subjects (Cohort 1, 40 mg QW): 2 (8.0%) | Gastrointestinal AE Abdominal pain upper, subjects (Cohort 1, 40 mg QW): 1 (4.0%) | Gastrointestinal AE Abdominal pain, subjects (Cohort 1, 40 mg QW): 4 (16.0%) | Gastrointestinal AE Constipation, subjects (Cohort 1, 40 mg QW): 1 (4.0%) | Gastrointestinal AE Diarrhoea, subjects (Cohort 1, 40 mg QW): 3 (12.0%) | Gastrointestinal AE Diverticulum intestinal haemorragic, subjects (Cohort 1, 40 mg QW): 0 | Gastrointestinal AE Dyspepsia, subjects (Cohort 1, 40 mg QW): 3 (12.0%) | Gastrointestinal AE Dysphagia, subjects (Cohort 1, 40 mg QW): 0 | Gastrointestinal AE Epigastric discomfort, subjects (Cohort 1, 40 mg QW): 1 (4.0%) | Gastrointestinal AE Flatulence, subjects (Cohort 1, 40 mg QW): 0 | Gastrointestinal AE GERD, subjects (Cohort 1, 40 mg QW): 2 (8.0%) | Gastrointestinal AE Gastritis, subjects (Cohort 1, 40 mg QW): 0 | Gastrointestinal AE Haematochezia, subjects (Cohort 1, 40 mg QW): 1 (4.0%) | Gastrointestinal AE Haemorroids, subjects (Cohort 1, 40 mg QW): 1 (4.0%) | Gastrointestinal AE Large intestinal ulcer, subjects (Cohort 1, 40 mg QW): 1 (4.0%) | Gastrointestinal AE Nausea, subjects (Cohort 1, 40 mg QW): 6 (24.0%) | Gastrointestinal AE Odynophagia, subjects (Cohort 1, 40 mg QW): 0 | Gastrointestinal AE Oesophagitis, subjects (Cohort 1, 40 mg QW): 1 (4.0%) | Gastrointestinal AE Retching, subjects (Cohort 1, 40 mg QW): 0 | Gastrointestinal AE Vomiting, subjects (Cohort 1, 40 mg QW): 2 (8.0%) | Hepatobiliary clinical AE Cholelithiasis, subjects (Cohort 1, 40 mg QW): 1 (4.0%) | Hepatobiliary clinical AE Hepatomegaly, subjects (Cohort 1, 40 mg QW): 0 | Hepatobiliary clinical AE Hyperbilirubinaemia, subjects (Cohort 1, 40 mg QW): 1 (4.0%) | Hepatobiliary clinical AE Jaundice, subjects (Cohort 1, 40 mg QW): 0 | Hepatobiliary clinical AE Liver injury, subjects (Cohort 1, 40 mg QW): 0 | Intensity of Gastrointestinal AEs, Grade 1, subjects (Cohort 1, 40 mg QW): 9 (36.0%) | Intensity of Gastrointestinal AEs, Grade 2, subjects (Cohort 1, 40 mg QW): 6 (24.0%) | Intensity of Gastrointestinal AEs, Grade 3, subjects (Cohort 1, 40 mg QW): 2 (8.0%) | Intensity of Gastrointestinal AEs, Grade 4, subjects (Cohort 1, 40 mg QW): 0 | Intensity of Gastrointestinal AEs, Grade 5, subjects (Cohort 1, 40 mg QW): 0 | Serum ALT level, Median fold increase from Baseline at Follow-up Week 1 (Cohort 1, 40 mg QW): 1.50 fold | Serum ALT level, Median fold increase from Baseline at Follow-up Week 4 (Cohort 1, 40 mg QW): 1.00 fold | Serum ALT level, Peak Median fold increase from Baseline (Cohort 1, 40 mg QW): 1.80 fold | Subjects completed study (Cohort 1, 40 mg QW): 7 (28.0%) n (%) | Total Bilirubin (Screening) >1-[…] ULN, subjects (Cohort 1, 40 mg QW): 1 (4.0%) | Total Bilirubin (Screening) >1.5-3 × ULN, subjects (Cohort 1, 40 mg QW): 3 (12.0%) | Total Bilirubin (Screening) >3-10 × ULN, subjects (Cohort 1, 40 mg QW): 0 | Total Bilirubin (Screening) >10 × ULN, subjects (Cohort 1, 40 mg QW): 0 | Total Bilirubin (any time during therapy) >1-[…] ULN, subjects (Cohort 1, 40 mg QW): 3 (13.0%) | Total Bilirubin (any time during therapy) >1.5-3 × ULN, subjects (Cohort 1, 40 mg QW): 1 (4.3%) | Total Bilirubin (any time during therapy) >3-10 × ULN, subjects (Cohort 1, 40 mg QW): 0 | Total Bilirubin (any time during therapy) >10 × ULN, subjects (Cohort 1, 40 mg QW): 0 | Abdominal pain leading to study drug withdrawal (Cohort 1, 40 mg QW, N = 25): 0% | All AEs leading to withdrawal (Cohort 1, 40 mg QW, N = 25): 15 (60.0%) | Diarrhoea leading to study drug withdrawal (Cohort 1, 40 mg QW, N = 25): 0% | Dyspepsia leading to study drug withdrawal (Cohort 1, 40 mg QW, N = 25): 0% | Nausea leading to study drug withdrawal (Cohort 1, 40 mg QW, N = 25): 0% | TEAE ALT increased (Cohort 1, 40 mg QW, N = 25): 2 (8.0%) n (%) | TEAE AST increased (Cohort 1, 40 mg QW, N = 25): 1 (4.0%) n (%) | TEAE Abdominal pain (Cohort 1, 40 mg QW, N = 25): 4 (16.0%) n (%) | TEAE Abdominal pain, Upper (Cohort 1, 40 mg QW, N = 25): 1 (4.0%) n (%) | TEAE Acute GVHD (Cohort 1, 40 mg QW, N = 25): 6 (24.0%) n (%) | TEAE Acute Myeloid Leukemia recurrent (Cohort 1, 40 mg QW, N = 25): 3 (12.0%) n (%) | TEAE Acute Renal Failure (Cohort 1, 40 mg QW, N = 25): 2 (8.0%) n (%) | TEAE Anxiety (Cohort 1, 40 mg QW, N = 25): 0 n (%) | TEAE Arthralgias (Cohort 1, 40 mg QW, N = 25): 0 n (%) | TEAE Back Pain (Cohort 1, 40 mg QW, N = 25): 0 n (%) | TEAE Blood lactate dehydrogenase increased (Cohort 1, 40 mg QW, N = 25): 0 n (%) | TEAE Creatinine increased (Cohort 1, 40 mg QW, N = 25): 0 n (%) | TEAE Cytomegalovirus viremia (Cohort 1, 40 mg QW, N = 25): 10 (40.0%) n (%) | TEAE Decreased appetite (Cohort 1, 40 mg QW, N = 25): 4 (16.0%) n (%) | TEAE Diarrhoea (Cohort 1, 40 mg QW, N = 25): 3 (12.0%) n (%) | TEAE Dysgeusia (Cohort 1, 40 mg QW, N = 25): 1 (4.0%) n (%) | TEAE Fatigue (Cohort 1, 40 mg QW, N = 25): 1 (4.0%) n (%) | TEAE GI Reflux Disease (Cohort 1, 40 mg QW, N = 25): 2 (8.0%) n (%) | TEAE Gamma-glutamyltransferase increased (Cohort 1, 40 mg QW, N = 25): 0 n (%) | TEAE Generalized oedema (Cohort 1, 40 mg QW, N = 25): 1 (4.0%) n (%) | TEAE Hyperbilirubinaemia (Cohort 1, 40 mg QW, N = 25): 1 (4.0%) n (%) | TEAE Hyperglycaemia (Cohort 1, 40 mg QW, N = 25): 1 (4.0%) n (%) | TEAE Hyperkalemia (Cohort 1, 40 mg QW, N = 25): 1 (4.0%) n (%) | TEAE Hypocalcaemia (Cohort 1, 40 mg QW, N = 25): 1 (4.0%) n (%) | TEAE Hypokalaemia (Cohort 1, 40 mg QW, N = 25): 4 (16.0%) n (%) | TEAE Hyponatraemia (Cohort 1, 40 mg QW, N = 25): 3 (12.0%) n (%) | TEAE Increased leukocytosis (Cohort 1, 40 mg QW, N = 25): 1 (4.0%) n (%) | TEAE Insomnia (Cohort 1, 40 mg QW, N = 25): 2 (8.0%) n (%) | TEAE Liver function test abnormal (Cohort 1, 40 mg QW, N = 25): 0 n (%) | TEAE Malnutrition (Cohort 1, 40 mg QW, N = 25): 0 n (%) | TEAE Nausea (Cohort 1, 40 mg QW, N = 25): 6 (24.0%) n (%) | TEAE Neutropenia (Cohort 1, 40 mg QW, N = 25): 2 (8.0%) n (%) | TEAE Oedema peripheral (Cohort 1, 40 mg QW, N = 25): 3 (12.0%) n (%) | TEAE Oral Candidiasis (Cohort 1, 40 mg QW, N = 25): 0 n (%) | TEAE Pneumonia (Cohort 1, 40 mg QW, N = 25): 1 (4.0%) n (%) | TEAE Pyrexia (Cohort 1, 40 mg QW, N = 25): 1 (4.0%) n (%) | TEAE Recurrent flatulence (Cohort 1, 40 mg QW, N = 25): 0 n (%) | TEAE Renal Failure (Cohort 1, 40 mg QW, N = 25): 1 (4.0%) n (%) | TEAE Staphylococcal Bacteremia (Cohort 1, 40 mg QW, N = 25): 0 n (%) | TEAE Thrombocytopenia (Cohort 1, 40 mg QW, N = 25): 3 (12.0%) n (%) | TEAE Tremor (Cohort 1, 40 mg QW, N = 25): 3 (12.0%) n (%) | TEAE Vomiting (Cohort 1, 40 mg QW, N = 25): 2 (8.0%) n (%) | Vomiting leading to study drug withdrawal (Cohort 1, 40 mg QW, N = 25): 0% | All AEs, Grade 5 (deaths) (Cohort 1, 40 mg QW, N = 25, entire study duration): 2 (8.0%) | Subjects completed treatment [1]: 9 (36.0%) n (%) | Subjects who permanently discontinued treatment [1]: 16 (64.0%) n (%) | subjects discontinued due to neutropenia (Cohort 2): 1 subject(s) | ALT (Screening) >3 × ULN-5 × ULN, subjects (Cohort 2, 100 mg QW): 0 | ALT (Screening) >5 × ULN-10 × ULN, subjects (Cohort 2, 100 mg QW): 0 | ALT (Screening) >10 × ULN-20 × ULN, subjects (Cohort 2, 100 mg QW): 0 | ALT (Screening) >20 × ULN, subjects (Cohort 2, 100 mg QW): 0 | ALT (any time during therapy) >3 × ULN-5 × ULN, subjects (Cohort 2, 100 mg QW): 1 (3.7%) | ALT (any time during therapy) >5 × ULN-10 × ULN, subjects (Cohort 2, 100 mg QW): 0 | ALT (any time during therapy) >10 × ULN-20 × ULN, subjects (Cohort 2, 100 mg QW): 1 (3.7%) | ALT (any time during therapy) >20 × ULN, subjects (Cohort 2, 100 mg QW): 0 | AST (Screening) >3 × ULN-5 × ULN, subjects (Cohort 2, 100 mg QW): 0 | AST (Screening) >5 × ULN-10 × ULN, subjects (Cohort 2, 100 mg QW): 0 | AST (Screening) >10 × ULN-20 × ULN, subjects (Cohort 2, 100 mg QW): 0 | AST (Screening) >20 × ULN, subjects (Cohort 2, 100 mg QW): 0 | AST (any time during therapy) >3 × ULN-5 × ULN, subjects (Cohort 2, 100 mg QW): 1 (3.7%) | AST (any time during therapy) >5 × ULN-10 × ULN, subjects (Cohort 2, 100 mg QW): 0 | AST (any time during therapy) >10 × ULN-20 × ULN, subjects (Cohort 2, 100 mg QW): 0 | AST (any time during therapy) >20 × ULN, subjects (Cohort 2, 100 mg QW): 0

Reference: patent publication US20140303092A1 (CHIMERIX, INC., priority 2011, published 2014)
